Data: patent US9399635B2, “Pyrazole derivative” (GREEN TECH CO., LTD., priority 2011, dated 2016)

Structure (SMILES)	melting point
COc1ccc(/C=C/c2cc(/C=C/c3ccc4cc[nH]c4c3)[nH]n2)c(OC)c1 [Example 54, 3-[(1E)-2-(2,4-dimethoxyphenyl)ethenyl]-5-[(1E)-2-(1H-indol-6-yl)ethenyl]-1H-pyrazole]	121 to 133 °C
CC(=O)Nc1ccc(/C=C/c2cc(/C=C/c3ccc4cc[nH]c4c3)[nH]n2)cc1 [Example 55, 3-[(1E)-2-[4-(acetylamino)phenyl]ethenyl]-5-[(1E)-2-(1H-indol-6-yl)ethenyl]-1H-pyrazole]	> 300 °C
C(=C\c1cc(/C=C/c2ccc3cc[nH]c3c2)[nH]n1)/c1ccc(Oc2ccccc2)cc1 [Example 56, 3-[(1E)-2-(1H-indol-6-yl)ethenyl]-5-[(1E)-2-(4-phenoxyphenyl)ethenyl]-1H-pyrazole]	175 to 182 °C
CS(=O)(=O)c1ccc(/C=C/c2cc(/C=C/c3ccc4cc[nH]c4c3)[nH]n2)cc1 [Example 57, 3-[(1E)-2-(1H-indol-6-yl)ethenyl]-5-[(1E)-2-[4-(methanesulfonyl)phenyl]ethenyl]-1H-pyrazole]	260 to 268 °C
C(=C\c1cc(/C=C/c2ccccc2-c2cccnc2)n[nH]1)/c1ccc2cc[nH]c2c1 [Example 59, 3-[(1E)-2-(1H-indol-6-yl)ethenyl]-5-[(1E)-2-[2-(3-pyridyl)phenyl]ethenyl]-1H-pyrazole]	248 to 255 °C
COc1cc(Br)c(/C=C/c2cc(/C=C/c3ccc4cc[nH]c4c3)[nH]n2)cc1O [Example 60, 3-[(1E)-2-(2-bromo-5-hydroxy-4-methoxyphenyl)ethenyl]-5-[(1E)-2-(1H-indol-6-yl)ethenyl]-1H-pyrazole]	137 to 142 °C
C(=C\c1cc(/C=C/c2ccc3cc[nH]c3c2)[nH]n1)/c1ccc(-c2ccccc2)cc1 [Example 61, 3-[(1E)-2-(1H-indol-6-yl)ethenyl]-5-[(1E)-2-(4-phenylphenyl)ethenyl]-1H-pyrazole]	273 to 276 °C
CN1CCN(c2ccc(/C=C/c3cc(/C=C/c4ccc5cc[nH]c5c4)[nH]n3)c(Br)c2)CC1 [Example 62, 3-[(1E)-2-[2-bromo-4-(4-methylpiperazin-1-yl)phenyl]ethenyl]-5-[(1E)-2-(1H-indol-6-yl)ethenyl]-1H-pyrazole]	120 to 124 °C
COc1cc(OC(c2ccccc2)c2ccccc2)ccc1/C=C/c1cc(/C=C/c2ccc3cc[nH]c3c2)[nH]n1 [Example 64, 3-[(1E)-2-[4-(diphenylmethoxy)-2-methoxyphenyl]ethenyl]-5-[(1E)-2-(1H-indol-6-yl)ethenyl]-1H-pyrazole]	114 to 119 °C
COc1cc(OC(C)C)ccc1/C=C/c1cc(/C=C/c2ccc3cc[nH]c3c2)[nH]n1 [Example 65, 3-[(1E)-2-(1H-indol-6-yl)ethenyl]-5-[(1E)-2-(4-isopropoxy-2-methoxyphenyl)ethenyl]-1H-pyrazole]	107 to 113 °C
COCCOc1ccc(/C=C/c2cc(/C=C/c3ccc4cc[nH]c4c3)[nH]n2)c(OC)c1 [Example 66, 3-[(1E)-2-(1H-indol-6-yl)ethenyl]-5-[(1E)-2-[2-methoxy-4-(2-methoxyethoxy)phenyl]ethenyl]-1H-pyrazole]	90 to 96 °C
COc1ccc(Br)c(/C=C/c2cc(/C=C/c3ccc4cc[nH]c4c3)[nH]n2)c1 [Example 67, 3-[(1E)-2-(2-bromo-5-methoxyphenyl)ethenyl]-5-[(1E)-2-(1H-indol-6-yl)ethenyl]-1H-pyrazole]	103 to 109 °C
COc1ccc(COc2ccc(/C=C/c3cc(/C=C/c4ccc5cc[nH]c5c4)[nH]n3)c(OC)c2)cc1 [Example 68, 3-[(1E)-2-(1H-indol-6-yl)ethenyl]-5-[(1E)-2-[2-methoxy-4-(4-methoxybenzyloxy)phenyl]ethenyl]-1H-pyrazole]	211 to 214 °C
COc1cc(OCc2ccccn2)ccc1/C=C/c1cc(/C=C/c2ccc3ccn(Cc4ccccc4)c3c2)[nH]n1 [Example 70, 3-[(1E)-2-(1-benzyl-1H-indol-6-yl)ethenyl]-5-[(1E)-2-[2-methoxy-4-(2-pyridylmethoxy)phenyl]ethenyl]-1H-pyrazole]	89 to 93 °C
Brc1cc(N2CCOCC2)ccc1/C=C/c1cc(/C=C/c2ccc3cc[nH]c3c2)[nH]n1 [Example 71, 3-[(1E)-2-[2-bromo-4-(morpholin-4-yl)phenyl]ethenyl]-5-[(1E)-2-(1H-indol-6-yl)ethenyl]-1H-pyrazole]	143 to 148 °C
COc1cc(OCc2ccccn2)ccc1/C=C/c1cc(/C=C/c2ccc3ccn(C(C)=O)c3c2)[nH]n1 [Example 73, 3-[(1E)-2-(1-acetyl-1H-indol-6-yl)ethenyl]-5-[(1E)-2-[2-methoxy-4-(2-pyridylmethoxy)phenyl]ethenyl]-1H-pyrazole]	182 to 187 °C
COc1cc(OCc2ccccn2)ccc1/C=C/c1cc(/C=C/c2ccc3ccn(S(C)(=O)=O)c3c2)[nH]n1 [Example 74, 3-[(1E)-2-(1-methanesulfonyl-1H-indol-6-yl)ethenyl]-5-[(1E)-2-[2-methoxy-4-(2-pyridylmethoxy)phenyl]ethenyl]-1H-pyrazole]	212 to 214 °C
COc1cc(OCCN(C)C)ccc1/C=C/c1cc(/C=C/c2ccc3cc[nH]c3c2)[nH]n1 [Example 76, 3-[(1E)-2-[4-[2-(dimethylamino)ethoxy]-2-methoxyphenyl]ethenyl]-5-[(1E)-2-(1H-indol-6-yl)ethenyl]-1H-pyrazole]	109 to 112 °C
CC(C)c1ccc(/C=C/c2cc(/C=C/c3ccc4cc[nH]c4c3)[nH]n2)cc1 [Example 78, 3-[(1E)-2-(1H-indol-6-yl)ethenyl]-5-[(1E)-2-(4-isopropylphenyl)ethenyl]-1H-pyrazole]	208 to 212 °C

Continued, values first:

melting point	Structure (SMILES)
99 to 110 °C	COc1cc(OCc2ccccn2)ccc1/C=C/c1cc(/C=C/c2cccc3cc[nH]c23)[nH]n1 [Example 41, 3-[(1E)-2-(1H-indol-7-yl)ethenyl]-5-[(1E)-2-[2-methoxy-4-(2-pyridylmethoxy)phenyl]ethenyl]-1H-pyrazole]
129 to 137 °C	COc1cc(OCc2cccnc2)ccc1/C=C/c1cc(/C=C/c2c[nH]c3ccccc23)[nH]n1 [Example 42, 3-[(1E)-2-(1H-indol-3-yl)ethenyl]-5-[(1E)-2-[2-methoxy-4-(3-pyridylmethoxy)phenyl]ethenyl]-1H-pyrazole]
128 to 139 °C	COc1cc(OCc2ccncc2)ccc1/C=C/c1cc(/C=C/c2c[nH]c3ccccc23)[nH]n1 [Example 43, 3-[(1E)-2-(1H-indol-3-yl)ethenyl]-5-[(1E)-2-[2-methoxy-4-(4-pyridylmethoxy)phenyl]ethenyl]-1H-pyrazole]
127 to 135 °C	COc1cc(OCc2cccnc2)ccc1/C=C/c1cc(/C=C/c2ccc3[nH]ccc3c2)[nH]n1 [Example 44, 3-[(1E)-2-(1H-indol-5-yl)ethenyl]-5-[(1E)-2-[2-methoxy-4-(3-pyridylmethoxy)phenyl]ethenyl]-1H-pyrazole]
133 to 141 °C	COc1cc(OCc2ccncc2)ccc1/C=C/c1cc(/C=C/c2ccc3[nH]ccc3c2)[nH]n1 [Example 45, 3-[(1E)-2-(1H-indol-5-yl)ethenyl]-5-[(1E)-2-[2-methoxy-4-(4-pyridylmethoxy)phenyl]ethenyl]-1H-pyrazole]
90 to 95 °C	COc1cc(OCc2cccnc2)ccc1/C=C/c1cc(/C=C/c2ccc3cc[nH]c3c2)[nH]n1 [Example 46, 3-[(1E)-2-(1H-indol-6-yl)ethenyl]-5-[(1E)-2-[2-methoxy-4-(3-pyridylmethoxy)phenyl]ethenyl]-1H-pyrazole]
103 to 118 °C	COc1cc(OCc2ccncc2)ccc1/C=C/c1cc(/C=C/c2ccc3cc[nH]c3c2)[nH]n1 [Example 47, 3-[(1E)-2-(1H-indol-6-yl)ethenyl]-5-[(1E)-2-[2-methoxy-4-(4-pyridylmethoxy)phenyl]ethenyl]-1H-pyrazole]
109 to 114 °C	COc1cc(OCc2cccnc2)ccc1/C=C/c1cc(/C=C/c2cccc3[nH]ccc23)[nH]n1 [Example 48, 3-[(1E)-2-(1H-indol-4-yl)ethenyl]-5-[(1E)-2-[2-methoxy-4-(3-pyridylmethoxy)phenyl]ethenyl]-1H-pyrazole]
207 to 215 °C	COc1cc(OCc2ccncc2)ccc1/C=C/c1cc(/C=C/c2cccc3[nH]ccc23)[nH]n1 [Example 49, 3-[(1E)-2-(1H-indol-4-yl)ethenyl]-5-[(1E)-2-[2-methoxy-4-(4-pyridylmethoxy)phenyl]ethenyl]-1H-pyrazole]
122 to 129 °C	COc1cc(OCc2cccnc2)ccc1/C=C/c1cc(/C=C/c2cccc3cc[nH]c23)[nH]n1 [Example 50, 3-[(1E)-2-(1H-indol-7-yl)ethenyl]-5-[(1E)-2-[2-methoxy-4-(3-pyridylmethoxy)phenyl]ethenyl]-1H-pyrazole]
201 to 206 °C	COc1cc(OCc2ccncc2)ccc1/C=C/c1cc(/C=C/c2cccc3cc[nH]c23)[nH]n1 [Example 51, 3-[(1E)-2-(1H-indol-7-yl)ethenyl]-5-[(1E)-2-[2-methoxy-4-(4-pyridylmethoxy)phenyl]ethenyl]-1H-pyrazole]
126 to 138 °C	COc1cc(OCc2cccnc2)ccc1/C=C/c1cc(/C=C/c2cc3ccccc3[nH]2)[nH]n1 [Example 52, 3-[(1E)-2-(1H-indol-2-yl)ethenyl]-5-[(1E)-2-[2-methoxy-4-(3-pyridylmethoxy)phenyl]ethenyl]-1H-pyrazole]
124 to 134 °C	COc1cc(OCc2ccncc2)ccc1/C=C/c1cc(/C=C/c2cc3ccccc3[nH]2)[nH]n1 [Example 53, 3-[(1E)-2-(1H-indol-2-yl)ethenyl]-5-[(1E)-2-[2-methoxy-4-(4-pyridylmethoxy)phenyl]ethenyl]-1H-pyrazole]
107 to 120 °C	COc1cc(OCc2ccccn2)ccc1/C=C/c1cc(/C=C/c2cccc3ncccc23)[nH]n1 [Example 69, 3-[(1E)-2-(quinolin-5-yl)ethenyl]-5-[(1E)-2-[2-methoxy-4-(2-pyridylmethoxy)phenyl]ethenyl]-1H-pyrazole]
219 to 223 °C	COc1cc(OCc2ccccn2)ccc1/C=C/c1cc(/C=C/c2c[nH]c3ncccc23)[nH]n1 [Example 75, 3-[(1E)-2-(7-aza-1H-indol-3-yl)ethenyl]-5-[(1E)-2-[2-methoxy-4-(2-pyridylmethoxy)phenyl]ethenyl]-1H-pyrazole]
